Source: US11247996B2, “Small molecule inhibitors for transcription factors” (University of Massachusetts, priority 2016, dated 2022)

Key:
[1] = test system: full-length HIV-1 NL4-3 (X4) viruses in Jurkat cells; assay: Viral production in full-length HIV-1 NL4-3 infected Jurkat cells (qRT-PCR of medium); format: cell-based; settings: full replication competent NL4-3 infected Jurkat cells, 24 hours
Description: To determine the effect of UMB-136 on HIV-1 replication, Jurkat cells were infected with full-length HIV-1 NL4-3 (X4) viruses for 8 hours before being treated with compounds (UMB-136, JQ1, or prostratin) for 24 hours. The medium was collected and subjected to viral RNA extraction, reverse transcription, and qPCR assays by using Lenti-X™ qRT-PCR Titration Kit (Clontech, Mountain View, Calif.) following the manufacturer's instructions.

[2] = test system: latent HIV-1 in J-Lat clones (6.3, 8.4, 9.2, and 10.4); assay: Flow cytometry on J-Lat full-length (dEnv) clones, single LRA; format: cell-based; settings: J-Lat 6.3, 8.4, 9.2, 10.4; UMB-136 2.5 and 5 (printed PM), JQ1 1 μM; 24 hours
Description: (§1) The CD4+ T-lymphoid cell lines included Jurkat, J-Lat A2 (harboring an LTR-Tat-IRES-GFP construct), J-Lat 6.3, 8.4, 9.2, 10.4 (containing a full-length integrated HIV-1 genome with a defective envelop, that express GFP upon activation). Monocytic THP89GFP cells were provided by David Levy (New York University). Jurkat cells were cultured in RPMI with 10% FBS. THP89GFP and Primary CD4+ helper T cells (Sanguine Biosciences, Sherman Oaks, Calif. and Lonza Group Ltd., Basel, Switzerland) were cultured and maintained respectively in complete medium (RPMI 1640 with 10% FBS, lx glutamine, lx MEM non-essential amino acid solution, and 20 mM HEPES).
(§2) The HIV-1 latency-reversing effect of UMB-136 was evaluated on different reservoirs (lymphocytes and macrophages), J-Lat cell clones (6.3, 8.4, 9.2, and 10.4) and THP89GFP were treated with DMSO, JQ1 (1 μM), or UMB-136 (2.5, 5 μM for J-Lat cells, 5 μM for THP89GFP). For the investigation of synergistic effects JLat clones were treated with UMB-136 (2.5 μM), JQ1 (1 μM), SAHA (0.5 μM) or prostratin (1 μM) or DMSO as a control. Drugs were used alone or in combination. Flow cytometry was conducted at 24 hours post treatment and GFP-positive cells were quantified.
(§3) All flow cytometry assays were conducted using an Accuri C6 Flow Cytometer (Accuri, Ann Arbor, Mich.). […]

[3] = test system: latent HIV-1 89.6 strain in THP89GFP cells; assay: Flow cytometry on THP89GFP monocytic latency cells; format: cell-based; settings: UMB-136 5 μM, JQ1 1 μM, 24 hours
Description: as §1, §2, §3

[4] = test system: latent HIV-1 in non-polarized, memory CD4+ T cells; assay: Primary CD4+ T cell model of HIV-1 latency (blood or tonsil); format: cell-based; settings: primary CD4+ T cells from blood or lymph node (tonsil), two donors; compound alone
Description: To acquire primary CD4+ T cells, primary CD4+ T cells were isolated from either lymphoid tissue (tonsil) or from the peripheral blood of two donors. Tonsils were isolated from HIV-negative donors, with obstructive sleep apnea (OSA), whom required surgical removal of their tonsils. Isolation of tonsillar mononuclear cells (TMC) was performed as described in Johnston et al. Curr Protoc Immunol Chapter 7, Unit 7-8. In brief, fresh, healthy tonsils kept in ice-cold 1× Hank's Balanced Salt Solution (HBSS) with antibiotics (100 U/mL penicillin, 100 ug/mL streptomycin, 5 ug/mL gentamicin, 0.5 ug/mL amphotericin) were cut into 3- to 10-mm fragments with scalpels then pushed through a 3-inch stainless steel sieve using the flat end of a 5-mL plastic syringe plunger. […]
The LRA effect of UMB-136 was studied by modifying slightly a primary CD4+ T cell model of HIV-1 latency as described in Bosque et al. Methods. […] On day 21, 5 days post treatment, the supernatant was collected for quantification of newly produced viruses using the Lent-X™ qRT-PCR Titration Kit (Clontech, Mountain View, Calif.) following the manufacturer's instructions.

[5] = test system: latent HIV-1 in J-Lat clones (6.3, 8.4, 9.2, and 10.4); assay: LRA combinations in J-Lat clones (flow cytometry, Bliss independence model); format: cell-based; settings: for Synergy in reversing HIV-1, combination with prostratin: +prostratin 1 μM
Description: as §2
(§4) All flow cytometry assays were conducted using an Accuri C6 Flow Cytometer (Accuri, Ann Arbor, Mich.). Cell debris and aggregates were excluded by gating on the Forward Scatter (FS) and Side Scatter (SS) parameters.

[6] = test system: latent HIV-1 in CD8-depleted PBMCs; settings: JQ1 in combination with bryostatin-1, earlier reports; cited from earlier work
[7] = test system: latent HIV-1 in J-Lat A2 cells; assay: HIV-1 latency-reversing flow cytometry assay in J-Lat A2 cells; format: cell-based; settings: 5 μM; for HIV-1 reactivation (GFP-positive cells): 24 hours post treatment
Description: as §1
Wells were treated with 5 μM of compound or dimethyl sulfoxide (DMSO). GFP-positive cells were acquired and analyzed by flow cytometry at 24 hours post treatment.
as §4

[8] = biological target: BRD4 (Homo sapiens, UniProt O60885); settings: McKeown et al., J Med Chem, 2014; cited from earlier work
[9] = biological target: TAF1 (Homo sapiens, UniProt P21675); settings: McKeown et al., J Med Chem, 2014; cited from earlier work
[10] = biological target: T1, endogenous BRD4 (Homo sapiens, UniProt O60885); assay: Pull-down with biotinylated UMB-136 from HEK293 cell lysate, BRD4 immunoblot; format: binding; settings: biotinylated UMB-136, HEK293 cell lysate
T1 construct: endogenous in cells; host or cells: HEK293
Description: (§5) Pull-down and Immunoprecipitation (IP) assays were performed by incubating HEK293 cell lysate with either biotinylated UMB-136 or biotin in DMSO at 4° C. overnight with orbital rocking. MyOne™ Streptavidin T1 Dynabeads™ (Invitrogen, Carlsbad, Calif.) were added to the mixture which was then incubated for 2 hours. Beads were washed and then boiled to elute precipitated proteins, which were subjected to immunoblotting using BRD4 antibody (Bethyl Laboratories, Inc., Montgomery, Tex.) or BRD2 antibody (Santa Cruz Biotechnology, Dallas, Tex.).

[11] = biological target: T2, BRD2 (Homo sapiens, UniProt P25440); assay: Pull-down with biotinylated UMB-136 from HEK293 cell lysate, BRD2 immunoblot; format: binding; settings: biotinylated UMB-136, HEK293 cell lysate
T2 construct: endogenous in cells; host or cells: HEK293
Description: as §5

[12] = test system: P-TEFb (CCNT1) and Tat; assay: Tat-Flag immunoprecipitation in HeLa cells, Cyclin T1 immunoblot; format: cell-based; settings: 2.5 μM, 24 hours
Description: Tat-Flag expressing HeLa cells were treated with UMB-136 (2.5 μM) or DMSO for 24 hours, then incubated with Magnetic Flag Conjugated beads (Clontech, Mountain View, Calif.) at 4° C. for overnight with orbital rocking. Beads were washed and boiled, then immunoblotting was performed using Cyclin T1 antibody (Santa Cruz Biotechnology, Dallas, Tex.).

[13] = test system: VSV-G pseudo-typed HIV-1 NL4-3-Luciferase virus infected Jurkat cells; format: cell-based
[14] = test system: primary CD4+ T cells; assay: Cytokine release in primary CD4+ T cells from healthy donor; format: cell-based
[15] = test system: latent HIV-1 in CD8-depleted PBMCs; assay: Ex vivo latency reversal in CD8-depleted PBMCs of cART-treated aviremic patients (nested qPCR); format: cell-based
[16] = test system: CD8-depleted PBMCs; assay: Cell death due to LRA treatments in CD8-depleted PBMCs; format: cell-based; settings: compared with JQ1 combinations
[17] = test system: Jurkat cells; settings: human, 24 h, 2.5 μM
Description: Cell viability assays were performed by culturing Jurkat cells in a 48-well plate at 1×10^5 cells per well in a total volume of 250 μl RPMI media with 10% FBS. […] After an incubation period of 24 hours, cells were lysed. The total ATP content was measured using Cell Titer Glo (Promega Corporation, Madison, Wis.).

[18] = J-Lat clones, Bliss independence model

T2 sequence (P25440 whole entry): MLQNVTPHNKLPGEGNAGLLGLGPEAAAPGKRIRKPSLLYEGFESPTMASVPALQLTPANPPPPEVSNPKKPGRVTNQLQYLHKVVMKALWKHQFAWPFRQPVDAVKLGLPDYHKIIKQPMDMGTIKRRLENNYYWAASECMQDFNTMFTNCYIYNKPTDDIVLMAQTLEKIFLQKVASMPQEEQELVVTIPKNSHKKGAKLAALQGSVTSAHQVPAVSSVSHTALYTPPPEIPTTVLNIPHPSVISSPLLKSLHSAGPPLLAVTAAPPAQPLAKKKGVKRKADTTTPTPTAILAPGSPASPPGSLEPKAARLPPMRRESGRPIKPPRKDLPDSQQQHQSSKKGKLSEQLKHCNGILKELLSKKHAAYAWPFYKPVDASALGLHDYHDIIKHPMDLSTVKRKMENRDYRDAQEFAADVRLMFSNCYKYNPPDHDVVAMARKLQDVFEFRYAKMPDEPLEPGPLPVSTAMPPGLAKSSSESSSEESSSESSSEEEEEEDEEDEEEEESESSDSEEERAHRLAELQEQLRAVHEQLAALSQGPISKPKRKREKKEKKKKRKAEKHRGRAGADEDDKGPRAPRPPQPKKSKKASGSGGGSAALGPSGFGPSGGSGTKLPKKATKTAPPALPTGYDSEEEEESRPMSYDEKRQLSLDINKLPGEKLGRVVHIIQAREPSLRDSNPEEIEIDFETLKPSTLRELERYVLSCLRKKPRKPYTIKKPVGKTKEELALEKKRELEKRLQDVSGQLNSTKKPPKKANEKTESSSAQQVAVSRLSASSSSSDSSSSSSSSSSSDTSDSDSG
TAF1, sequence (P21675 whole entry): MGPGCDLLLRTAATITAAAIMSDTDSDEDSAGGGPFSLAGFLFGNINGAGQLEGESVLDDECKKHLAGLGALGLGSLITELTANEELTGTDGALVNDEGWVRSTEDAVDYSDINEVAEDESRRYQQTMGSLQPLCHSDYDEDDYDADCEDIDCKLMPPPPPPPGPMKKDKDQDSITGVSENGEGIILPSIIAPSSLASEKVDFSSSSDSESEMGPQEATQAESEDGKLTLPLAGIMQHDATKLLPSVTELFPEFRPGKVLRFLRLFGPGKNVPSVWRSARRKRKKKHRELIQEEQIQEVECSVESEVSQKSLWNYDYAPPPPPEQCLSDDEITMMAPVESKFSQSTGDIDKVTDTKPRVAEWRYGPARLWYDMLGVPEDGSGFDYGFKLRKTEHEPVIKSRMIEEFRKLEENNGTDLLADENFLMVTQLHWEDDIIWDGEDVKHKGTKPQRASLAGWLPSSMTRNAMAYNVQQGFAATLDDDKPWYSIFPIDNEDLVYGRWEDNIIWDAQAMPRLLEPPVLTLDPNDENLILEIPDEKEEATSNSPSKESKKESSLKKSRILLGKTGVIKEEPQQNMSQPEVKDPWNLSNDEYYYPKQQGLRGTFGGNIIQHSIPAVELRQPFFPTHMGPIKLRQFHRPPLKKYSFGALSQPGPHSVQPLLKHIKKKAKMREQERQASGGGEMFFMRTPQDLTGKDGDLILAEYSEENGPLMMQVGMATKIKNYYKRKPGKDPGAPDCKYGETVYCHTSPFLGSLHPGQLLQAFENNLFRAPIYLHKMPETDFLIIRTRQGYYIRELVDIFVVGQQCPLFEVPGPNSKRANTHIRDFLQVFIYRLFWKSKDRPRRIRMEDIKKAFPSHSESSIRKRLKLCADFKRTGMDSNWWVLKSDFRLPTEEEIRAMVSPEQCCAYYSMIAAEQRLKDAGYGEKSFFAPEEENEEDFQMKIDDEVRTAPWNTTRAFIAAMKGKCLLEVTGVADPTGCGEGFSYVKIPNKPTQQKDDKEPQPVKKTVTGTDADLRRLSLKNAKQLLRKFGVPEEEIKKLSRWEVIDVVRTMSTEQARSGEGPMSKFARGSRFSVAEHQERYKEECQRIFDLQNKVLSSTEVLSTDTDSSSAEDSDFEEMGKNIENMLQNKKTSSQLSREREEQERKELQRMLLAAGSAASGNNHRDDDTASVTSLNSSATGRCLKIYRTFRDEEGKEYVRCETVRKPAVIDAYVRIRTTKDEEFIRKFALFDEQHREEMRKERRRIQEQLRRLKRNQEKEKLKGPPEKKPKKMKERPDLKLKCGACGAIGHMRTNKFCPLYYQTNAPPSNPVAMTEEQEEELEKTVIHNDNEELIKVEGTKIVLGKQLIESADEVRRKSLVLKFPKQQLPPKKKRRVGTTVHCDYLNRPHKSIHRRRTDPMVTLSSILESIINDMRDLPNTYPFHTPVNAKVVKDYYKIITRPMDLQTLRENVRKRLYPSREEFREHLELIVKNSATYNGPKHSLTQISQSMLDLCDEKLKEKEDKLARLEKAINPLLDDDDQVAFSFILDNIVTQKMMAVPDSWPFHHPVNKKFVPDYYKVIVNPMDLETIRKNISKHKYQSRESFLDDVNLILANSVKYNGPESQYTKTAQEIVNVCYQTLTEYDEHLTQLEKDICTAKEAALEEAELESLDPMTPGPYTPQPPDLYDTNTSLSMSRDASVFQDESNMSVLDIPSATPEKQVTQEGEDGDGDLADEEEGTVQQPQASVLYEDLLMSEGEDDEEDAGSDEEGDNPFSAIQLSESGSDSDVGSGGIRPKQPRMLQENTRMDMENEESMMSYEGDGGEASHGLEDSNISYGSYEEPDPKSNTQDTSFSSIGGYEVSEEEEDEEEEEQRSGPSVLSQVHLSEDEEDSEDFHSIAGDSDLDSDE

Cc1sc2c(c1C)C(c1ccc(Cl)cc1)=N[C@@H](CC(=O)OC(C)(C)C)c1nnc(C)n1-2 [JQ1, reference compound]
Viral production [1]: did not
Reversal of HIV-1 latency (GFP-positive cells) [2]: no observable effect
Reactivation of latent HIV-1 [3]: did not
Reactivation of latent virus [4]: fails to do so
Reactivation of latent HIV-1, combination with SAHA ([5]; J-Lat cell clones, JQ1+SAHA combination): minimally reactivates latent HIV-1
Synergy in reversing HIV-1, combination with prostratin [5, 18]: significantly synergizes with prostratin
Reversal of HIV-1 latency, combination with bryostatin-1 (reported) [6]: potently reverse HIV-1 latency

Cc1noc(C)c1-c1ccc(-c2nc3cnccn3c2NC(C)(C)C)cc1 [UMB-32]
HIV-1 reactivation (GFP-positive cells) [7]: significantly induced HIV-1 reactivation
Binding to BRD4 [8]: strongly binds
Inhibition of target binding of BRD4 [8]: potently inhibits the target binding of BRD4
Binding to TAF1 [9]: strongly binds

COc1cc(-c2c(C)noc2C)ccc1-c1nc2cnccn2c1NC1CCCCC1 [UMB-136]
HIV-1 latency-reversing potency relative to other UMB compounds ([7]; 24 hours): most effective of all
HIV-1 reactivation (GFP-positive cells) [7]: significantly induced HIV-1 reactivation
Binding to endogenous BRD4 (pull-down) [10]: binds to endogenous BRD4
Binding to BRD2 (pull-down) [11]: not BRD2
Protein association between P-TEFb (CCNT1) and Tat [12]: greater protein association between P-TEFb (CCNT1) and Tat
HIV-1 transcriptional initiation and elongation [13]: enhances both transcriptional initiation and elongation of HIV-1
Viral production [1]: enhanced viral production
Reversal of HIV-1 latency (GFP-positive cells) [2]: dramatically reversed HIV-1 latency
Reactivation of latent HIV-1 [3]: substantial reactivation
Reactivation of latent virus [4]: efficiently reactivated latent virus
Cytokine release [14]: does not induce cytokine release
Synergy in reversing HIV-1, combination with SAHA ([5]; J-Lat clones, Bliss independence model, +SAHA 0.5 μM): statistically significant synergistic effect
Synergy in reversing HIV-1, combination with prostratin [5, 18]: statistically significant synergistic effect
HIV-1 reactivation in combination with SAHA or prostratin, compared with JQ1 combination ([5]; J-Lat clones, UMB-136 2.5 μM, SAHA 0.5 μM, prostratin 1 μM): greater effect of HIV-1 reactivation than its JQ1 counterpart
Viral reactivation, combination with bryostatin-1, compared with JQ1+bryostatin-1 [15]: even greater viral reactivation
Reversal of HIV-1 latency, combination with PKC agonists (prostratin or bryostatin-1) ([15]; CD8-depleted PBMCs, UMB-136 2.5 μM, prostratin 250 nM or bryostatin-1 10 nM, 48 hours): observed to reverse HIV-1 latency
Cytotoxicity (cell death) of combinations with prostratin/bryostatin-1 [16]: less cytotoxicity than JQ1 and prostratin/bryostatin-1 combinations
Cell viability [17]: same viability as 1 μM of JQ1
